Experimental data as given in BindingDB's records for patent US11926628 (Gilead Sciences, 2024).

Biological target: Diacylglycerol kinase alpha (Homo sapiens, UniProt P23743)
Assay: DGKα Biochemical Activity Assay
Description: Ten nanoliters of test compound dissolved in DMSO at various concentrations were dispensed into a 384-well low volume nonbinding service white plates (Corning #3824) using a Labcyte Echo instrument. Recombinant DGKα (Carna Biosciences) in assay buffer (5 μL in 50 mM MOPS [3-(N-morpholino) propanesulfonic acid], pH 7.2; 0.0025% Triton X-100; 1 mM dithiothreitol; 5 mM MgCl2, 200 μM ATP) was added to the compound-containing plate and was incubated for 15 minutes at 25° C. A substrate solution (5 μL in 1.7 mM 1,2-dioleoyl-sn-glycerol [18:1 DAG], 13.5 mM 1-palmitoyl-2-oleoyl-sn-glycero-3-phospho-L-serine [16:0-18:1 PS](POPS), 2 μM CaCl2, 100 mM Octylglucoside (OG), 1 mM DTT) (obtained from Carna Biosciences) diluted in DGK ALPHA assay buffer was then added to start the reaction. Final concentrations were 1 nM DGKα, 100 μM ATP, 1 μM calcium chloride, 0.85 mM 1,2-dioleoyl-sn-glycerol (18:1 DAG), 6.75 mM 1-palmitoyl-2-oleoyl-sn-glycero-3-phospho-L-serine (16:0-18:1 PS) (POPS), 1 μM CaCl2), 50 mM Octylglucoside (OG) and 5 mM MgCl2. The reaction mixture was incubated at 25° C. for 1 hour. ADP-Glo Reagent (10 μL, 10 mM Mg added) provided by the kit was added to each well and incubated at 25° C. for 40 minutes. Then, 20 μL of Kinase Detection Reagent was added and incubated at 25° C. for 40 minutes. Luciferase activity of each well was measured via luminescence on an Envision plate reader (PerkinElmer).

Sequence of Diacylglycerol kinase alpha (P23743 whole entry): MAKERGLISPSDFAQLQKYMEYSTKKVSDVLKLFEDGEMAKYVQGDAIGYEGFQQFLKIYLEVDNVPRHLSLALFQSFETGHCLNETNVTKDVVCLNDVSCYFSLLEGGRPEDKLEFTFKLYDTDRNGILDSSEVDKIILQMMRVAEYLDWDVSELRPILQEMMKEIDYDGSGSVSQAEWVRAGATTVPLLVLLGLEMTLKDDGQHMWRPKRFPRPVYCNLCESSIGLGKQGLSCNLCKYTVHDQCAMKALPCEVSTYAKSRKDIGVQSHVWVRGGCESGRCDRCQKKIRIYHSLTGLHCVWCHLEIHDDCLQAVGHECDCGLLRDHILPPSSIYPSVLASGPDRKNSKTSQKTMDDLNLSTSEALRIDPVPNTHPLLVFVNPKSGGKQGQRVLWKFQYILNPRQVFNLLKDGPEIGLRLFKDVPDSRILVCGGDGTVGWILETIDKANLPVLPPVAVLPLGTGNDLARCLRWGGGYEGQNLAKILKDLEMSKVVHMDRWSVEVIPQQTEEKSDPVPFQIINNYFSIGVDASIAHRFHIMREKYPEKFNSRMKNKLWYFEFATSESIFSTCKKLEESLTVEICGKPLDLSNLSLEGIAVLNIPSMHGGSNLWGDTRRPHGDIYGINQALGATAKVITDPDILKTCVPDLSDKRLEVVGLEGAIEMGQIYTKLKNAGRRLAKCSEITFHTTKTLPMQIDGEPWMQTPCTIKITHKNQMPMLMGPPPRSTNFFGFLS

Compound	IC50
CN(C)c1ccc2c(N(C)c3cccc(C#CC(C)(C)C)c3)nc3nncn3c2n1 [US11926628, Example 110]	0.93 µM
CN(c1cccc(C#CC(C)(C)C)c1)c1nc2nncn2c2cnccc12 [US11926628, Example 60]	0.0615 µM
Cc1nnc2nc(N3CCCc4c(C#CC5(C(F)(F)F)CC5)cccc43)c3c(F)cncc3n12 [US11926628, Example 41]	0.00782 µM
Cc1nnc2nc(N3CCCCc4c(C#CC(C)(C)C#N)cccc43)c3c(F)cncc3n12 [US11926628, Example 64]	0.00579 µM

Other lines, results leading:

IC50	Compound
0.0667 µM	CN(C)c1ccc2c(N(C)c3cccc(-c4ccc(C5CC5)cc4)c3)nc3nncn3c2n1 [US11926628, Example 112]
0.375 µM	COc1ccc(-c2cccc(N(C)c3nc4nncn4c4nc(N(C)C)ccc34)c2)cn1 [US11926628, Example 111]
0.702 µM	CCOc1ccc2c(N(C)c3cccc(-c4ccc(C5CC5)cc4)c3)nc3nncn3c2n1 [US11926628, Example 113]
